Measured values published in US12404262B2 (priority 2021, dated 2025).

Conditions: 1.0% DMSO, 24-hour incubation at ambient temperature, maximum theoretical 100 μM; for pH 2 solubility: 0.1N HCl, first value of the cell; for pH 7 solubility: 1×PBS buffer (pH 7.4), second value of the cell

| pH 2 solubility | pH 7 solubility | Compound |
| --- | --- | --- |
| 4 μM | 14 μM | C[C@@H](OP(=O)(O)O)[C@H](NC(=O)N(c1nn(CC(F)(F)F)c2c(-c3ccc(C#CC(C)(C)S(C)(=O)=O)nc3[C@H](Cc3cc(F)cc(F)c3)NC(=O)Cn3nc(C(F)(F)F)c4c3C(F)(F)[C@@H]3C[C@H]43)ccc(Cl)c12)S(C)(=O)=O)C(=O)O [Compound 62, N-((4-chloro-7-(2-((S)-1-(2-((3bS,4aR)-5,5-difluoro-3-(trifluoromethyl)-3b,4,4a,5-tetrahydro-1H-cyclopropa[3,4]cyclopenta[1,2-c]pyrazol-1-yl)acetamido)-2-(3,5-difluorophenyl)ethyl)-6-(3-methyl-3-(methylsulfonyl)but-1-yn-1-yl)pyridin-3-yl)-1-(2,2,2-trifluoroethyl)-1H-indazol-3-yl)(methylsulfonyl)carbamoyl)-O-phosphono-L-threonine] |
| 1 μM | 3 μM | C[C@H](O)[C@H](C)OC(=O)N(c1nn(CC(F)(F)F)c2c(-c3ccc(C#CC(C)(C)S(C)(=O)=O)nc3[C@H](Cc3cc(F)cc(F)c3)NC(=O)Cn3nc(C(F)(F)F)c4c3C(F)(F)[C@@H]3C[C@H]43)ccc(Cl)c12)S(C)(=O)=O [Compound 95, (2S,3S)-3-hydroxybutan-2-yl (4-chloro-7-(2-((S)-1-(2-((3bS,4aR)-5,5-difluoro-3-(trifluoromethyl)-3b,4,4a,5-tetrahydro-1H-cyclopropa[3,4]cyclopenta[1,2-c]pyrazol-1-yl)acetamido)-2-(3,5-difluorophenyl)ethyl)-6-(3-methyl-3-(methylsulfonyl)but-1-yn-1-yl)pyridin-3-yl)-1-(2,2,2-trifluoroethyl)-1H-indazol-3-yl)(methylsulfonyl)carbamate] |
| 1/1 μM | 1/1 μM | CC(=O)N(c1nn(CC(F)(F)F)c2c(-c3ccc(C#CC(C)(C)S(C)(=O)=O)nc3[C@H](Cc3cc(F)cc(F)c3)NC(=O)Cn3nc(C(F)(F)F)c4c3C(F)(F)[C@@H]3C[C@H]43)ccc(Cl)c12)S(C)(=O)=O [Compound 1, N—((S)-1-(3-(4-chloro-3-(N-(methylsulfonyl)acetamido)-1-(2,2,2-trifluoroethyl)-1H-indazol-7-yl)-6-(3-methyl-3-(methylsulfonyl)but-1-yn-1-yl)pyridin-2-yl)-2-(3,5-difluorophenyl)ethyl)-2-((3bS,4aR)-5,5-difluoro-3-(trifluoromethyl)-3b,4,4a,5-tetrahydro-1H-cyclopropa[3,4]cyclopenta[1,2-c]pyrazol-1-yl)acetamide] |
| 1/1 μM | 1/1 μM | CC(C)(C#Cc1ccc(-c2ccc(Cl)c3c(N(C(=O)O[C@@H](CC(=O)O)C(=O)O)S(C)(=O)=O)nn(CC(F)(F)F)c23)c([C@H](Cc2cc(F)cc(F)c2)NC(=O)Cn2nc(C(F)(F)F)c3c2C(F)(F)[C@@H]2C[C@H]32)n1)S(C)(=O)=O [Compound 119, (S)-2-(((4-chloro-7-(2-((S)-1-(2-((3bS,4aR)-5,5-difluoro-3-(trifluoromethyl)-3b,4,4a,5-tetrahydro-1H-cyclopropa[3,4]cyclopenta[1,2-c]pyrazol-1-yl)acetamido)-2-(3,5-difluorophenyl)ethyl)-6-(3-methyl-3-(methylsulfonyl)but-1-yn-1-yl)pyridin-3-yl)-1-(2,2,2-trifluoroethyl)-1H-indazol-3-yl)(methylsulfonyl)carbamoyl)oxy)succinic acid] |
| 1/1 μM | 1/1 μM | CC(C)(CO)C(=O)OCN(c1nn(CC(F)(F)F)c2c(-c3ccc(C#CC(C)(C)S(C)(=O)=O)nc3[C@H](Cc3cc(F)cc(F)c3)NC(=O)Cn3nc(C(F)(F)F)c4c3C(F)(F)[C@@H]3C[C@H]43)ccc(Cl)c12)S(C)(=O)=O [Compound 24, (N-(4-chloro-7-(2-((S)-1-(2-((3bS,4aR)-5,5-difluoro-3-(trifluoromethyl)-3b,4,4a,5-tetrahydro-1H-cyclopropa[3,4]cyclopenta[1,2-c]pyrazol-1-yl)acetamido)-2-(3,5-difluorophenyl)ethyl)-6-(3-methyl-3-(methylsulfonyl)but-1-yn-1-yl)pyridin-3-yl)-1-(2,2,2-trifluoroethyl)-1H-indazol-3-yl)methylsulfonamido)methyl 3-hydroxy-2,2-dimethylpropanoate] |
| 1 μM | 14 μM | C[C@@H](CNC(=O)N(c1nn(CC(F)(F)F)c2c(-c3ccc(C#CC(C)(C)S(C)(=O)=O)nc3[C@H](Cc3cc(F)cc(F)c3)NC(=O)Cn3nc(C(F)(F)F)c4c3C(F)(F)[C@@H]3C[C@H]43)ccc(Cl)c12)S(C)(=O)=O)OP(=O)(O)O [Compound 35, (S)-1-(3-(4-chloro-7-(2-((S)-1-(2-((3bS,4aR)-5,5-difluoro-3-(trifluoromethyl)-3b,4,4a,5-tetrahydro-1H-cyclopropa[3,4]cyclopenta[1,2-c]pyrazol-1-yl)acetamido)-2-(3,5-difluorophenyl)ethyl)-6-(3-methyl-3-(methylsulfonyl)but-1-yn-1-yl)pyridin-3-yl)-1-(2,2,2-trifluoroethyl)-1H-indazol-3-yl)-3-(methylsulfonyl)ureido)propan-2-yl dihydrogen phosphate] |
| 1/1 μM | 1/1 μM | C[C@@H](OC(=O)N(c1nn(CC(F)(F)F)c2c(-c3ccc(C#CC(C)(C)S(C)(=O)=O)nc3[C@H](Cc3cc(F)cc(F)c3)NC(=O)Cn3nc(C(F)(F)F)c4c3C(F)(F)[C@@H]3C[C@H]43)ccc(Cl)c12)S(C)(=O)=O)C(=O)O [Compound 116, (R)-2-(((4-chloro-7-(2-((S)-1-(2-((3bS,4aR)-5,5-difluoro-3-(trifluoromethyl)-3b,4,4a,5-tetrahydro-1H-cyclopropa[3,4]cyclopenta[1,2-c]pyrazol-1-yl)acetamido)-2-(3,5-difluorophenyl)ethyl)-6-(3-methyl-3-(methylsulfonyl)but-1-yn-1-yl)pyridin-3-yl)-1-(2,2,2-trifluoroethyl)-1H-indazol-3-yl)(methylsulfonyl)carbamoyl)oxy)propanoic acid] |
| 1/1 μM | 1/1 μM | CC(C)(C)C(=O)OCN(c1nn(CC(F)(F)F)c2c(-c3ccc(C#CC(C)(C)S(C)(=O)=O)nc3[C@H](Cc3cc(F)cc(F)c3)NC(=O)Cn3nc(C(F)(F)F)c4c3C(F)(F)[C@@H]3C[C@H]43)ccc(Cl)c12)S(C)(=O)=O [Compound 30, (N-(4-chloro-7-(2-((S)-1-(2-((3bS,4aR)-5,5-difluoro-3-(trifluoromethyl)-3b,4,4a,5-tetrahydro-1H-cyclopropa[3,4]cyclopenta[1,2-c]pyrazol-1-yl)acetamido)-2-(3,5-difluorophenyl)ethyl)-6-(3-methyl-3-(methylsulfonyl)but-1-yn-1-yl)pyridin-3-yl)-1-(2,2,2-trifluoroethyl)-1H-indazol-3-yl)methylsulfonamido)methyl pivalate] |
